Test results: patent publication US12409156B2, “Stable aqueous hydroxycarbamide solution” (Nova Bio-Pharma Product Development LTD, priority 2018, dated 2025)

Columns and labels:
Rat toxicology studies = assay type: in vivo; conditions: compared with hydroxycarbamide (hydroxyurea)
Procedure: Importantly, the composition disclosed in U.S. Pat. No. 3,119,866 is only stable as a dry composition, after evaporation of all water. […] After this time unacceptable levels of degradation products are present in the aqueous solution. As a result, it has previously been considered that the use of pH buffers such as potassium citrate and citric acid/sodium citrate to stabilise solutions of hydroxycarbamide is not effective. At temperatures between 2° C. and 8° C., the applicant has discovered that the main degradation product of hydroxycarbamide solutions is carbamoyloxyurea. The International Conference on Harmonisation of Technical Requirements for Registration of Pharmaceuticals for Human Use (ICH) stipulates that the maximum allowable limit for any degradant in a formulation should not exceed 0.15% w/v, at therapeutic doses of hydroxycarbamide in the treatment of sickle cell disease. […] As a result, the European Medicines Agency has now accepted that carbamoyloxyurea contents of up to 0.5% w/v are acceptable.

[1] = cited from earlier work
six organisms tested = test: Preservative efficacy study
Procedure: In parallel to this work, a preservative efficacy study was performed to investigate the effectiveness of the preservative system.

Row | SMILES | risk in rat toxicology studies (Rat toxicology studies) | variation of exposure for a given dosing regime ([1]; adult patients) | differences in exposure at the same mg/kg dose ([1]; paediatric patients) | antimicrobial activity (six organisms tested)
1 | NC(=O)NOC(N)=O [carbamoyloxyurea] | does not pose a risk over and above hydroxycarbamide | – | – | –
2 | NC(=O)NO [hydroxycarbamide, Hydroxycarbamide] | – | approximately five-fold | two to three-fold | able to inhibit the growth of six organisms tested
